{"source": "paper PMC2924314", "about": "“Peptides derived from the HIV-1 integrase promote HIV-1 infection and multi-integration of viral cDNA in LEDGF/p75-knockdown cells” (Virology Journal, 2010)", "key": {"LEDGF/p75": {"target": "T1, LEDGF/p75 (Homo sapiens, UniProt O75475)", "T1 construct": "histidine tag; made in house", "T1 sequence (O75475 whole entry)": "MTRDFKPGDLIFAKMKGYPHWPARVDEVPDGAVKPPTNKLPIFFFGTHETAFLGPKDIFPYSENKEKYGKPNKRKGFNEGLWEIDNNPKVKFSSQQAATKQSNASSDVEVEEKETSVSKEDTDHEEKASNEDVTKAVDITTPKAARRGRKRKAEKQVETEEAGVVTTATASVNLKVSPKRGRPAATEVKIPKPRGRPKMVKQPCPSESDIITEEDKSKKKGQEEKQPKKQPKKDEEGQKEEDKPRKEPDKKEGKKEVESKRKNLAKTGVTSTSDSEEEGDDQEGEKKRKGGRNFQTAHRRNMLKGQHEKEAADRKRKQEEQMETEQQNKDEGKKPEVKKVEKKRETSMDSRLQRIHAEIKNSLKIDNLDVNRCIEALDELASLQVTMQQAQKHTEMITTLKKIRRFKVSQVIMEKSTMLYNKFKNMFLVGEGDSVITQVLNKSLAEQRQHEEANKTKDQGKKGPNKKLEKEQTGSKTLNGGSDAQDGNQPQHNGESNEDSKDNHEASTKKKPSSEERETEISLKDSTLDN", "test": "ELISA binding of peptides to LEDGF/p75", "conditions": "apparent Kd according to ELISA using LEDGF and BSA alone as control; peptide-coated plates, room temperature, OD 490 nm, duplicate", "description": "Expression and purification of the histidine-tagged IN and LEDGF/p75 expression vectors, were a generous gift from Prof. Engelman, Dana-Farber Cancer Institute and Division of AIDS, Harvard Medical School, Boston, MA, USA), were performed essentially as described previously.\nProtein-peptide, protein-protein and protein-DNA binding was estimated using an ELISA-based binding assay exactly as described previously. Briefly, Maxisorp plates (Nunc) were incubated at room temperature for 2 h with […] of 10 μg/ml synthetic peptide/recombinant proteins in carbonate buffer. After incubation, the solution was removed, the plates were washed three times with PBS, and 200 μl of 10% BSA (Sigma) in PBS (w/v) was added and the plates were further incubated for 2 h at room temperature. After rewashing with PBS, the tested BSA-biotinilated (Bb) peptide or protein (alone or biotinilated) was added for a further 1-h incubation at room temperature. Following three washes with PBS, the concentration of bound molecules was estimated following the addition of streptavidin-horseradish peroxidase (HRP) conjugate (Sigma), as described previously. The enzymatic activity of HRP was estimated by monitoring the product's optical density (OD) at 490 nm using an ELISA plate reader (Tecan Sunrise, Männedorf, Switzerland). Each measurement was performed in duplicate. […]"}, "[1]": {"conditions": "ref [25]; cited from earlier work", "source_text": "Following integration of the viral cDNA, several viral proteins are expressed, among them Rev. After its nuclear import the Rev protein is involved in nuclear export of unspliced and partially spliced viral RNA molecules. Thus, similar to IN, the presence the Rev protein is essential for completion of the HIV-1 life cycle. In addition to its expression from integrated viral DNA, Rev can be expressed from unintegrated DNA molecules and thus appear at an early stage in virus-infected cells. Recently, we have shown that early expressed Rev can interact with IN in ..."}}, "note": "Where no end group is shown, it is not given here."}
{"sequence": "WTAVQMAVFIHNFKRK [INS]", "values": [{"measurement": "Kd", "setting": "LEDGF/p75", "value": "2.2 ± 0.7", "unit": "µM"}, {"measurement": "cell permeability (result in words)", "setting": "[1]", "value": "cell-permeable"}]}
